# Reference: patent US9492398B2, “Nanocapsulation of essential oils for preventing or curing infectious diseases alone or with an antibiotic” (Eydo Pharma, priority 2011, dated 2016)
# Where two headings read alike, the source gives them in different places.
# Key:
# [1] = test system: A. baumanni 12; test: Minimal inhibitory concentration on Muller-Hinton agar; format: cell-based; conditions: A. baumanni 12
# Protocol: (§1) The essential oils were also tested individually for their minimal inhibitory concentration.
# (§2) The solution was first prepared at 40% in DMSO before being placed on the Muller-Hinton agar in the following manner in Table VIII:
# (§3) Twenty-two different microorganisms were tested and their minimal inhibitory concentration was tested.
# [2] = test system: A. baumanni AYE; test: as above; format: cell-based; conditions: A. baumanni AYE
# Protocol: as §1, §2, §3
# [3] = test system: A. baumanni CIP107292; test: as above; format: cell-based; conditions: A. baumanni CIP107292; read-out: Minimal Inhibitory Concentration
# Protocol: as §1, §2, §3
# [4] = test system: A. baumanni CIP5377; test: as above; format: cell-based; conditions: A. baumanni CIP5377
# Protocol: as §1, §2, §3
# [5] = test system: A. baumanni CIP7034; test: as above; format: cell-based; conditions: A. baumanni CIP7034
# Protocol: as §1, §2, §3
# [6] = test system: A. baumanni RCH; test: as above; format: cell-based; conditions: A. baumanni RCH
# Protocol: as §1, §2, §3
# [7] = test system: A. baumanni SAN008; test: as above; format: cell-based; conditions: A. baumanni SAN008
# Protocol: as §1, §2, §3
# [8] = test system: E. aerogenes 0705A0867; test: as above; format: cell-based
# Protocol: as §1, §2, §3
# [9] = test system: E. cloacae 0705A1743; test: as above; format: cell-based
# Protocol: as §1, §2, §3
# [10] = test system: E. coli 0705A0434; test: as above; format: cell-based
# Protocol: as §1, §2, §3
# [11] = test system: E. coli ATCC25922; test: as above; format: cell-based
# Protocol: as §1, §2, §3
# [12] = test system: K. oxyloca 0705C0187; test: as above; format: cell-based; conditions: K. oxyloca 0705C0187
# Protocol: as §1, §2, §3
# [13] = test system: P. aeroginosa 0703C0259; test: as above; format: cell-based
# Protocol: as §1, §2, §3
# [14] = test system: P. aeroginosa 0704C0134; test: as above; format: cell-based; conditions: P. aeroginosa 0704C0134
# Protocol: as §1, §2, §3
# [15] = test system: P. aeroginosa ATCC27853; test: as above; format: cell-based; conditions: P. aeroginosa ATCC27853; read-out: Minimal Inhibitory Concentration
# Protocol: as §1, §2, §3
# [16] = test system: S. aureus 0701A0095; test: as above; format: cell-based
# Protocol: as §1, §2, §3
# [17] = test system: S. aureus 0702E0196; test: as above; format: cell-based
# Protocol: as §1, §2, §3
# [18] = test system: S. aureus 0703H0036; test: as above; format: cell-based
# Protocol: as §1, §2, §3
# [19] = test system: S. aureus 0706C0025; test: as above; format: cell-based; conditions: Staphylococcus aureus, 0706C0025, S. aureus 0706C0025; read-out: Minimal Inhibitory Concentration
# Protocol: as §1, §2, §3
# [20] = test system: S. aureus ATC25923; test: as above; format: cell-based
# Protocol: as §1, §2, §3
# [21] = test system: Salmonell enteritidis 4; test: as above; format: cell-based; conditions: Salmonell enteritidis 4
# Protocol: as §1, §2, §3
# [22] = from the literature; cited from earlier work
# [23] = test system: S. aureus ATCC25923; test: Minimal inhibitory concentration on Mueller Hinton Agar (Example 13); format: cell-based, Staphylococcus aureus; conditions: Staphlococcus aureus
# Protocol: (§4) Mueller Hinton Agar was used in a standardized disk diffusion procedure for determining the susceptibility of rapidly growing aerobic microorganisms to antimicrobial agents.
# (§5) The test to evaluate the increase in resistance was carried out with a concentration of the product of two times the Minimal Inhibitory Concentration (MIC).
# [24] = test system: SARM S. aureus ATCC25923; test: as above; format: cell-based, Staphylococcus aureus; conditions: Staphylococcus aureus
# Protocol: as §4, §5
# [25] = test system: SARM S. aureus ATCC25923; test: In vitro emergence of resistance over passages; format: cell-based, Staphylococcus aureus
# Protocol: as §4, §5
# [26] = read-out: Minimal Inhibitory Concentration
compound,measurement,setting,value
C=CCc1ccc(O)c(OC)c1 [eugenol],Minimal Inhibitory Concentration,[1],1.5 mg/mL
same,MIC,[1]; [26],1000 µg/mL
same,Minimal Inhibitory Concentration,[2],1 mg/mL
same,MIC,[2]; [26],750 µg/mL
same,MIC,[3],1000 µg/mL
same,Minimal Inhibitory Concentration,[4],1 mg/mL
same,MIC,[4]; [26],500 µg/mL
same,Minimal Inhibitory Concentration,[5],1.5 mg/mL
same,MIC,[5]; [26],1000 µg/mL
same,Minimal Inhibitory Concentration,[6],1 mg/mL
same,MIC,[6]; [26],750 µg/mL
same,Minimal Inhibitory Concentration,[7],1.5 mg/mL
same,MIC,[7]; [26],750 µg/mL
same,Minimal Inhibitory Concentration,[8]; E. aerogenes 0705A0867,1.5 mg/mL
same,MIC,"[8]; Klebsiella aerogenes, 0705A0867, E. aerogenes 0705A0867, read-out: Minimal Inhibitory Concentration",1000 µg/mL
same,Minimal Inhibitory Concentration,[9]; E. cloacae 0705A1743,1.5 mg/mL
same,MIC,"[9]; Enterobacter cloacae, 0705A1743, E. cloacae 0705A1743, read-out: Minimal Inhibitory Concentration",1000 µg/mL
same,Minimal Inhibitory Concentration,[10]; E. coli 0705A0434,1.5 mg/mL
same,MIC,"[10]; Escherichia coli, 0705A0434, E. coli 0705A0434, read-out: Minimal Inhibitory Concentration",1000 µg/mL
same,Minimal Inhibitory Concentration,[11]; E. coli ATCC25922,1.5 mg/mL
same,MIC,"[11]; Escherichia coli, ATCC25922, E. coli ATCC25922, read-out: Minimal Inhibitory Concentration",750 µg/mL
same,Minimal Inhibitory Concentration,[12],1.5 mg/mL
same,MIC,[12]; [26],1000 µg/mL
same,MIC,[13],2500 µg/mL
same,Minimal Inhibitory Concentration,[13],5 mg/mL
same,Minimal Inhibitory Concentration,[14],2 mg/mL
same,MIC,[14]; [26],1500 µg/mL
same,MIC,[15],7500 µg/mL
same,Minimal Inhibitory Concentration,[16]; S. aureus 0701A0095,1.5 mg/mL
same,MIC,"[16]; Staphylococcus aureus, 0701A0095, S. aureus 0701A0095, read-out: Minimal Inhibitory Concentration",750 µg/mL
same,Minimal Inhibitory Concentration,[17]; S. aureus 0702E0196,1.5 mg/mL
same,MIC,"[17]; Staphylococcus aureus, 0702E0196, S. aureus 0702E0196, read-out: Minimal Inhibitory Concentration",1000 µg/mL
same,Minimal Inhibitory Concentration,[18]; S. aureus 0703H0036,1.5 mg/mL
same,MIC,"[18]; Staphylococcus aureus, 0703H0036, S. aureus 0703H0036, read-out: Minimal Inhibitory Concentration",1000 µg/mL
same,MIC,[19],1000 µg/mL
same,Minimal Inhibitory Concentration,[20]; S. aureus ATC25923,1.5 mg/mL
same,MIC,"[20]; Staphylococcus aureus, ATC25923, S. aureus ATC25923, read-out: Minimal Inhibitory Concentration",750 µg/mL
same,Minimal Inhibitory Concentration,[21],1.5 mg/mL
same,MIC,[21]; [26],1000 µg/mL
CN(C)[C@@H]1C(O)=C(C(N)=O)C(=O)[C@@]2(O)C(O)=C3C(=O)c4c(O)ccc(Cl)c4[C@@H](O)[C@H]3C[C@@H]12 [Demeclocyclin],LD50 in mice by intraperitoneal injection,[22],120 mg/kg
CO[C@H]1/C=C/O[C@@]2(C)Oc3c(C)c(O)c4c(O)c(c(/C=N/N5CCN(C)CC5)c(O)c4c3C2=O)NC(=O)/C(C)=C\C=C\[C@H](C)[C@H](O)[C@@H](C)[C@@H](O)[C@@H](C)[C@H](OC(C)=O)[C@@H]1C [Rifampicin],2 times the minimal inhibitory concentration,[23],0.16 µg/mL
same,MIC,"[24]; ATCC25923, read-out: Minimal inhibitory concentration",0.008 µg/mL
same,MIC,"[24]; ATCC25923, read-out: Minimal inhibitory concentration/4",0.002 µg/mL
same,"appearance of resistance, passage",[25]; Staphylococcus aureus,6
same,concentration at which inhibitory activity reappeared,[25]; after appearance of resistance,0.38 ml/I
same,times the initial minimal inhibitory concentration,[25]; after appearance of resistance,47.5
CCN1CCN(C(=O)N[C@@H](C(=O)N[C@@H]2C(=O)N3[C@@H]2SC(C)(C)[C@@H]3C(=O)O)c2ccccc2)C(=O)C1=O [Piperacillin],LD50 in mice by intraperitoneal injection,[22],9970 mg/kg
[H]/N=C(/N)N[C@H]1[C@H](O)[C@@H](O)[C@H](O[C@@H]2O[C@@H](C)[C@](O)(C=O)[C@H]2O[C@@H]2O[C@@H](CO)[C@H](O)[C@@H](O)[C@@H]2NC)[C@@H](N/C(N)=N\[H])[C@@H]1O [Streptomycin],LD50 in mice by intraperitoneal injection,[22],525 mg/kg
